Test results taken from PMC9254247, “Dual-sensitive antibacterial peptide nanoparticles prevent dental caries” (Theranostics, 2022).
No end group written: not given here.

What was measured:
normal oral organoids = assay type: cell-based, human; conditions: 1 day
From the text: (§1) Toxicity tests on human organoid s. Organoids have been established in our lab.
(§2) Ethical approval of the study and the written consent/permission forms were obtained from Institutional Review Board (IRB) at Hunan N ormal University before the study commencement. For each patient, written permission form was reviewed and signed by themselves. According to the literature14,15, briefly, the tissue samples obtained from patients were removed excess fat or muscle tissues and cut into small fragments.
(§3) The fragments were washed thoroughly, then digested and centrifuged to obtain cell pellet. The resulting pellet was resuspended in ice-cold 70 % BME for incubating 15 min and then the organoid medium was added. The composition of oral and gastric organoid medium was as follows: […]
(§4) 50- AGGGTATCTAATCCT-30) and the final amplicon was quantified using a Qubit dsDNA assay kit (Life Technologies, California, United States). […]
(§5) The operational taxonomic units (OTUs) were generated using Vsearch software with a 97% similarity cutoff. The QIIME package and the RDP classifier (confidence threshold was 70%) were performed to select the representative read of each OTU and annotate and BLAST against the Silva database Version 123, respectively. […]

[1] = test system: S. mutans UA159 infection of teeth; assay: In vivo rodent model simulating severe childhood caries; design: species or system Sprague-Dawley rat pups; conditions: for body weights vs control: after 35 days of topical treatment, 100 μM; for H&E staining of gingival, palatal and gastric tissues: caries study, Figure S12
From the text: For each patient, written permission form was reviewed and signed. […]
In vivo rodent model simulating severe childhood caries. All the animal studies were approved by the Institutional Animal Care and Use Committee (IACUC) of Hunan Normal University, and the National Institutes of Health guidelines for the performance of animal experiments were followed. 15 days -old female Sprague– Dawley rat pups were purchased with their dams from Slac & Jingda Corporation of laboratory animals, Changsha, China. All animals should be checked for the pathogen […]
infections especially for the S.mutans by plating oral swabs on mitis salivarius agar plus bacitracin. The animals were then infected by mouth with S. mutans UA159 (mid-logarithmic) 4 times (once a day) by pipetting 0.1 mL of a cell suspension containing 2 × 10^8 colony-forming units into their mouths. When the infection was confirmed, all the pups were randomly placed into three treatment groups, and their teeth were treated topically once a day for a total 35 days using the swabs plus modified syringe. The concentration of CHX and pHly -1 NPs was 100 μM and the volume was 300 μ L. The three treatment groups were: (1) control (PBS, pH 4.5); (2) CHX (100 μ M, dissolve in PBS, pH 4.5); (3) pHly -1 NPs (100 μM, dissolve in PBS, pH 4.5). Each group was provided the National Institutes of Health cariogenic diet 2000 and water containing 5% sucrose. After 35 days of treatment, all animals were sacrificed and jaws were collected according the literature . Determination of caries score of the jaws was performed by a calibrated examiner who was blind for the study by using codified samples according to Lar son’s modification of Keyes’ system 11 -13. […]
The fragments were washed thoroughly, then digested and centrifuged to obtain cell pellet. The resulting pellet was resuspended in ice-cold 70 % BME for incubating 15 min and then the organoid medium was added. The composition of oral and gastric organoid medium was as follows:
Human oral organoid medium contains Advanced Dulbecco’s Modified Eagle’s Medium/F12 supplemented with penicillin/streptomycin, 10 mM HEPES, 2 mM GlutaMAX, 1×B27 supplement (Life Technologies), 1.25 mM N -acetyl-l-cysteine (Sigma-Aldrich), 10 mM Nicotinamide (Sigma-Aldrich), 50 ng/mL human EGF (PeproTech), 500 nM A83- 01(Tocris Bioscience), 10 ng/mL human FGF10
(PeproTech), 5 ng/mL human FGF2 (PeproTech), 1 μM Prostaglandin E2 (Tocris Bioscience), 3 μM CHIR 99021 (Sigma -Aldrich), 1μM Foskolin, 100 μg/mL […]
(§6) Human gastric organoid medium contains Advanced Dulbecco’s Modified Eagle’s […]
GlutaMAX,1×B27 supplement (Life Technologies), 50 ng/mL human EGF
(PeproTech), 200 ng/mL human FGF10 (PeproTech), 1.25 mM N-acetyl-l-cysteine (Sigma-Aldrich), 10 nM Gastin-l, 500 nM A83- 01 (Tocris Bioscience), 10 μM […]
Prostaglandin E2 (Tocris Bioscience), 100 ng/mL human recombinant IGF-1 (Bio Legend), 3 μM CHIR 99021 (Sigma-Aldrich), 10 mM Nicotinamide (Sigma-Aldrich).
For the organoid toxicity assay, organoids were digested into single cells. After centrifugation and washing, single cells were plated in 70 % BME and then added to 96-well plates (5 μ L/well). After that, 100 μ L organoid medium was added into the […]

[2] = test system: oral microbiota and gingival, palatal and gastric tissues; assay type: in vivo, Kuming mice; conditions: for H&E staining of gingival, palatal and gastric tissues / oral microbiota diversity / ecological balance (PCoA, Chao, Shannon) / abundance of top three phyla (Bacteroidetes, Firmicutes, Proteobacteria): 0.2%, 100 μL, once per day for 7 days; for oral microbiota diversity / ecological balance (PCoA, Chao, Shannon) / abundance of top three phyla (Bacteroidetes, Firmicutes, Proteobacteria): n = 8; for abundance of top three phyla (Bacteroidetes, Firmicutes, Proteobacteria): saliva on 8th day; for tooth staining: data not shown
From the text: Toxicity tests on mice. Furthermore, 35- 40 g fe male Kuming mice were also purchased from Slac & Jingda Corporation of laboratory animals, Changsha, China to systematically evaluate the toxicity of pHly -1 NPs to oral microflora and soft tissue in mice. All animals were randomly placed into three treatment groups, and pHly-1 NPs or CHX in aqueous solution was gradually added to mice mouth once a day for seven days. Considering the concentration of CHX used in clinic is usually 0.2 %, we determined that the concentration of the pHly -1 NPs rinsed mouse’s mouth is also 0.2 % and the volume was 100 μ L. At the 8th day, saliva was drawn for oral microbiome analysis, and gingival, palatal and gastric tissues were collected for histopathological […]
Oral flora 16S rRNA sequencing. Total genomic DNA of oral samples was extracted in OE Biotech Company (Shanghai, China) using a QIAamp DNA Stool Mini Kit (Qiagen, Germantown, MD, USA). Bacterial DNA was amplified with primers […]
targeting the V3- V4 regions (50- TACGGRAGGCAGCAG- 30,
50- AGGGTATCTAATCCT-30) and the final amplicon was quantified using a Qubit dsDNA assay kit (Life Technologies, California, United States). Equal amounts of purified amplicons were pooled for subsequent sequencing by the Illumina Nova 6000 platform (Illumina, USA) (Shanghai Oebiotech Co., Ltd., Shanghai, China). The raw data were treated and processed using the QIIME software package (version 1.8.0).
The operational taxonomic units (OTUs) were generated using Vsearch software with a 97% similarity cutoff. The QIIME package and the RDP classifier (confidence threshold was 70%) were performed to select the representative read of each OTU and annotate and BLAST against the Silva database Version 123, respectively.
Furthermore, the microbial diversity in oral samples was estimated by using the alpha diversity that include Chao1 and Shannon index. The bacterial diversity between groups was compared using the Wilcoxon rank sum test.

[3] = test system: normal oral and gastric organoids; assay type: cell-based, human
From the text: as §1, §2, §3, §4, §5

normal gastric organoids = assay type: cell-based, human; conditions: 1 day
From the text: as §1, §2, §3, §6
GlutaMAX,1×B27 supplement (Life Technologies), 50 ng/mL human EGF […]
as §4, §5

Compound | oral organoid death (normal oral organoids; 15.6 μM) | body weights vs control [1] | H&E staining of gingival, palatal and gastric tissues [1] | caries lesions on sulcal and smooth surfaces (Keyes' scoring, Larson's modification) vs control ([1]; topical 100 μM, 300 μL, pH 4.5, once per day, 35 days, n = 8) | H&E staining of gingival, palatal and gastric tissues [2] | oral microbiota diversity / ecological balance (PCoA, Chao, Shannon) [2] | abundance of top three phyla (Bacteroidetes, Firmicutes, Proteobacteria) [2] | tooth staining [2] | concentration inducing organoid death or decreased viability [3] | gastric organoids death (normal gastric organoids; 31.25 μM) | effect on oral organoid viability (normal oral organoids; 500 μM) | effect on both organoids [3] | effect on gastric organoid viability (normal gastric organoids; 500 μM)
[H]/N=C(\N/C(=N/[H])NCCCCCCNC(=N)NC(=N)Nc1ccc(Cl)cc1)Nc1ccc(Cl)cc1 [CHX, chlorhexidine] | about 60% | No significant difference in body weights | no detectable signals for the harmful effect | alleviated severe lesions | epithelial cell shedding and structural damage of gastric tissue | reduced the oral microbiota diversity | significantly increased the abundance of Firmicutes species | occasionally present | ~ 20 μM | about 40% |  |  | 
KIWFHAMHIIAHFIAHQHLHQHL-NH2 [pHly-1 NPs] |  | No significant difference in body weights | no detectable signals for the harmful effect |  | no visible signs of harmful effects | did not disrupt the ecological balance of the microbiota | did not affect their abundance | not observed |  |  | no apparent viability decrease | no apparent effect | no obvious effect
